Experimental data as given in US20160090351A1, “INHIBITORS OF DEUBIQUITINATING PROTEASES” (BRANDEIS UNIVERSITY, priority 2013, published 2016).

Experiments:
[1] = tested on: USP9x, USP19, USP7/8, USP28/15; experiment: HA-Ub-VS activity profiling in cell lysates, USPs; format: biochemical, human; details: HEK293T or Cos-1 lysate, compounds numbered as in FIG. 3
Experimental: (§1) HA-ubiquitin vinylsulfone (HA-Ub-VS) irreversibly labels DUBs by modifying the catalytic cysteine residue Inhibition of the DUB prevents HA-Ub-VS labeling and the band is. […] The interaction with UCHL1/3 is reversible.
(§2) Lysate labeling assay on untransfected cells (1.5 mg/mL) was run with the stated concentration of inhibitor (or 1% DMSO control) for between 19-60 mins. After this time HA-Ub-VS (1.5-0.7 μM) was added and incubated for 19 mins. After this time reaction mixture (9 μL) was removed and quenched in 2× (final concentration) reducing loading buffer. For recovery experiments, a lysate of 6 mg/mL was treated with saturating compound C14 (250 μM) and incubated for 40 mins. Afterward, the lysate was diluted to 0.6 mg/mL (final concentration of inhibitor 25 μM) in lysis buffer (final volume 100 μL), then HA-Ub-VS was added. Aliquots (15 μL) were removed at the stated time (5-119 mins) and immediately quenched in 2× (final concentration) reducing loading buffer. For all HA-Ub-VS experiments samples in loading buffer were heated only to 37° C. prior to loading on a gel. This assay is highly susceptible to concentration of lysate and HA-Ub-VS. Cell experiments were carried out as above with some modifications. For Cos-1 and MCF-7 cells, after trypsinization, media with compound was added to give a final concentration of compound equal to that used in the assay. Cell pellets were lysed on an ice/salt bath with a temperature of −5° C. and lysate was centrifuged for only 5 mins.
(§3) HA-Ub-VS is an irreversible inhibitor of DUBs that is widely used in activity profiling. If the DUB inhibitors react to form a thiocarbonylated enzyme as proposed (FIG. 29B), then HA-Ub-VS labeling will be blocked. Treatment of HEK 293T lysates with HA-Ub-VS produced the characteristic pattern of protein bands at 250, 150-100, 45, 38 and 36 kDa, generally ascribed to USP9x (292 kDa), USP19 (146 kDa), USP7/8 (128 and 127 kDa, respectively), USP28/15 (122 and 112 kDa, respectively), UCH-L5 (38 kDa), UCH-L3 (26 kDa) and UCH-L1 (25 kDa) as depicted in FIG. 31.
(§4) The effect of diphenylcarbonates on HA-Ub-VS labeling was assessed to investigate the selectivity of DUB inhibition. Lysates were preincubated with diphenyl carbonates (75 μM), then treated with HA-Ub-VS (FIG. 31A). […] These C17 and C22-sensitive DUBs are most likely USP9x, USP19, USP7/8 and UCHL5, based on molecular weight (FIGS. 31B and 38). The identity of USP7 was confirmed by immunoblotting (FIG. 38F). […] Similar behavior was observed on Cos-1 cell lysates (FIG. 38B).

[2] = tested on: UCH-L5, UCH-L3, UCH-L1; experiment: HA-Ub-VS activity profiling in cell lysates, UCH-Ls; format: biochemical, human; details: HEK293T or Cos-1 lysate, compounds numbered as in FIG. 3
Experimental: as §1, §2, §3, §4

[3] = tested on: Bcr-Abl kinase; experiment: Bcr-Abl levels in K562 cells by immunoblotting; format: cell-based, human
Experimental: (§5) K562 cells are from a myelogenous leukemia line that expresses Bcr-Abl kinase. A. K562 cells were treated with TU50 for 24 hours after which time the cells were treated with annexin V-FITC and propidium iodide. Cells were then analyzed by flow cytometry. Cells showing only annexin V-FITC were considered apoptotic whereas cells showing both annexin V-FITC and propidium iodide were considered necrotic. N=2. All points show a significant difference to the vehicle (DMSO) with p<0.05. […] All points show a significant difference to vehicle (DMSO) with p<0.02. C. Same as A, but the incubation period was 8 hours. N>2. All points show a significant difference to DMSO with p<0.02. D, K562 cells were treated with TU50 for 4 hours. Samples were analyzed by SDS-PAGE and immunoblotting with anti-Bcr-Abl antibody. E. Quantitation of blot in D. The signal for tubulin was used to normalize the Bcr-Abl signal. N=3.
(§6) FIG. 34 depicts data showing that diphenylcarbonates cause the accumulation of HMW-Ub and reduce the levels of Bcr-Abl in K562 cells. A. K562 cells were treated with diphenyl carbonates (50 μM) for 2 h and then assayed for the accumulation of K48-linked Ub. B. As in A, but Bcr-Abl was measured by immunoblotting with anti-Abl antibodies. C. K562 cells were treated with C17 (50 μM) in the presence and absence of bortezomib (6 μM) for 4 hours and Bcr-Abl was measured by immunblotting with anti-Abl antibodies. D. Quantitation of blot in C. Significance: DMSO relative to C17 and bortezomib p=0.002; DMSO relative to C17, p=0.03. E. K562 cells were treated with C15 for 4 hours then analyzed for SMAD4 monoubiquitination by western blot. F. Quantitation of blots in A. (N=3). See also FIG. 40.
(§7) FIG. 40 depicts data showing that diphenyl carbonates induce the degradation of Bcr-Abl kinase. A. K562 cells were treated with C17 for 24 h (1 dose) then analyzed for Bcr-Abl expression by western blot with anti-Abl antibody. B. Quantitation of blots in A normalized to actin. C. K562 cells were treated with C17 for 24 h then the amount of cells in G1 and apoptosis were recorded (N=3). D. K562 were treated with C15 for 4 h then analyzed for Bcr-Abl expression using western blot. E. Quantitation of Bcr-Abl from D normalized to tubulin (N=4). F. Same K562 lysates were separately analyzed for K63-linked ubiquitin. G. Quantitation of blots in F (N=4). Differences between all bars is significant p<0.01). H. K562 cells were treated with C15 for 24 h after which time cells were fixed in ethanol, treated with propodium iodide/RNAse then analyzed by FACS. Viability was calculated using forward and side scatter. I. Same experiment as H but red fluorescence was measured to determine DNA content
(§8) Transfected cells were harvested 1.5 days post transfection. […] Typically clarified lysate was analyzed.

[4] = tested on: MCF7 cells; experiment: accumulation of K48- and K63-linked ubiquitin in MCF7 cells; format: cell-based, human; details: 100 μM
Experimental: FIG. 41 depicts data showing that compound C17 and C15 increase P53 expression and upregulate K48-linked Ub in MCF7 cells. A. MCF7 cells were treated with C17 (50 μM) for 48 h, dosed every 24 h and samples were analyzed for K48-linked ubiquitin. Note that samples were not sonicated, so only soluble HMW-Ub is recovered. B. A similar experiment to A but samples were analyzed for p53. C. Quantitation of blots in B. Each point has a P<0.001 for an increase relative to the DMSO vehicle (N=2). D. MCF7 cells were treated with C15 (100 μM) dosing every 2 h. The accumulation of K48-linked ubiquitin was assayed by SDS-PAGE and by western blot. E. MCF7 cells were treated as in D but the accumulation of K63-linked ubiquitin was assayed. F. Cos-1 cells were treated with C15 for 2 hours then analyzed for K48-linked ubiquitin by western blot. G. Similar experiment to F, but K63-linked ubiquitin was assayed. H. Quantitation of blots in G (N=3).
Similar results were obtained in Cos-1, CHO and HEK293T.
as §8

[5] = tested on: SMAD4; experiment: SMAD4 monoubiquitination in K562 cells by western blot; format: cell-based, human
Experimental: as §6, §8

[6] = tested on: caspases or the proteasome; experiment: effect on caspases or proteasome (PARP cleavage), Example 5; format: cell-based; details: 100 μM
Experimental: (§9) Cells treated with 4 (100 μM; as defined in FIG. 3) show PARP cleavage that indicates caspases are active. The fluorescence of G76V ubiquitin-GFP fusion protein increases in the presence of inhibitor 4 (as defined in FIG. 3), as expected if degradation […] due to inhibition of DUBs. In contrast, GFP fluorescence […] when the proteasome is inhibited by bortezomib.

[7] = tested on: G76V ubiquitin-GFP fusion protein; experiment: G76V ubiquitin-GFP fusion protein fluorescence, Example 5; format: cell-based; details: Example 5, FIG. 9 bottom panel
Experimental: as §9

[8] = tested on: USP7; experiment: MDM2 and P53 levels in treated cells, Example 6; format: cell-based; details: compound numbered as in FIG. 3
Experimental: P53 is a tumor suppressor that is rapidly degraded in tumor cells due to ubiquitination by MDM2. In turn, MDM2 is degraded by the ubiquitin/proteasome system. USP7 removes ubiquitin from MDM2, stabilizing the protein, and thereby causing degradation of P53. […] This behavior is observed when cells are treated with 4 (as defined in FIG. 3). Doxorubicin (Doxo) serves as a positive control.

[9] = target: T1, USP9x (Homo sapiens, UniProt Q93008); experiment: HA-Ub-VS labeling in K562 cell lysates; format: biochemical
T1 construct: endogenous in cells; host or cells: K562 cell lysate
Experimental: HA-Ub-VS is commonly used to label DUBs in cell lysates. […] A. and B. K562 cell lysates were treated with compound for 40 minutes prior to activity labeling with HA-Ub-VS (1.5 μM) for 20 minutes. Samples were analyzed by SDS-PAGE and immunoblotting with anti-HA antibody. C. […] Values were derived by fitting to the in Prism.

[10] = target: 20S proteasome (Homo sapiens, UniProt P28074); experiment: proteasome activity (purified 20S proteasome; GFP-Ub (G76V) in Cos-1 cells); format: biochemical; details: 20S proteasome 30 minutes, Suc-Leu-Tyr-AMC 100 μM; Cos-1 GFP-Ub (G76V) 8 hours
Experimental: A. Purified 20S proteasome was treated with compound for 30 minutes prior to addition of substrate (Suc-Leu-Tyr-AMC, 100 μM). B. Cos-1 cells expressing with GFP-Ub (G76V) were treated with compound for 8 hours, then the level of GFP was measured by flow cytometry.

[11] = tested on: BaF3.p210; experiment: cytotoxicity in a panel of cell lines, Alamar Blue; format: cell-based, mouse
Experimental: Cytoxicity was tested against a panel of cell lines: (i) B16/F10, a metastatic mouse melanoma cell line that suppresses the tumor suppressor Gas1 (Growth arrest-specific 1); (ii) BaF3, an immortalized mouse pro-B cell line that depends on IL-3 for growth and proliferation (L-3 stimulates expression of the pro-survival Bc1-2 family member, Mc1-1; and USP9x is the deubiquitinase responsible for stabilizing Mc1-1); (iii) Cos-1, monkey kidney fibroblast immortalized with SV40 T antigen; (iv) BaF3.p210, BaF3 cells expressing Bcr-Abl kinase (p210), the mutant protein that causes chronic myelogenous leukemia, and the target of Gleevec (The expression of Bcr-Abl cause proliferation to become IL-3-independent. These cells have been widely used in the development of Bcr-Abl kinase inhibitors. USP9x stabilizes Bcr-Abl by removing Ub and blocking degradation via autophagy.); (v) HEK293T, human embryonic kidney cell line expressing SV40 T antigen; (vi) HeLa, human cervical adenocarcinoma cell line; (vii) MCF7, human breast cancer cell line; and (viii) NIH3T3, mouse fibroblast cell line. Of these, the only cells dependent on USP9x for survival are BaF3.p210 and BaF3. A. Cells were treated with a single dose of TU50 for 48 h and viable cells were measured using Alamar Blue®. EC50=8±2 μM for BaF3.p210. B. As above, except that cells were treated with TU50 for 72 h.

[12] = tested on: K562 cells; experiment: apoptosis, cell cycle and viability of K562 cells by flow cytometry; format: cell-based, human; details: annexin V-FITC / propidium iodide, 24 hours (TU50 also 8 hours)
Experimental: as §5, §7

[13] = target: cathepsin C (Homo sapiens, UniProt P53634); experiment: cathepsin C inhibition; format: biochemical; details: compounds numbered as in FIG. 5
Chain of cathepsin C (P53634 25-463, species assumed): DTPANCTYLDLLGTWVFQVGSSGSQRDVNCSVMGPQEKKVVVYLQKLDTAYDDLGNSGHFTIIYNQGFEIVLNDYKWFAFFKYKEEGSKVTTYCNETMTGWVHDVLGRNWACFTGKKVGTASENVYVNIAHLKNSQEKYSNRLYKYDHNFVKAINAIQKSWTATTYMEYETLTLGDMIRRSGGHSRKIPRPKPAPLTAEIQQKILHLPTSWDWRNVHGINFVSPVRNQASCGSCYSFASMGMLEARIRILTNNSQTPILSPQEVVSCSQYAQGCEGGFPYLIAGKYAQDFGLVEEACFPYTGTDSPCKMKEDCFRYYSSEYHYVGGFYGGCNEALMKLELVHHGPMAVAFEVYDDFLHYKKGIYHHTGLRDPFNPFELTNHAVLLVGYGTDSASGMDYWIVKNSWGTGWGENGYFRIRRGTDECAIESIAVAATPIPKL

T1 sequence (Q93008 whole entry): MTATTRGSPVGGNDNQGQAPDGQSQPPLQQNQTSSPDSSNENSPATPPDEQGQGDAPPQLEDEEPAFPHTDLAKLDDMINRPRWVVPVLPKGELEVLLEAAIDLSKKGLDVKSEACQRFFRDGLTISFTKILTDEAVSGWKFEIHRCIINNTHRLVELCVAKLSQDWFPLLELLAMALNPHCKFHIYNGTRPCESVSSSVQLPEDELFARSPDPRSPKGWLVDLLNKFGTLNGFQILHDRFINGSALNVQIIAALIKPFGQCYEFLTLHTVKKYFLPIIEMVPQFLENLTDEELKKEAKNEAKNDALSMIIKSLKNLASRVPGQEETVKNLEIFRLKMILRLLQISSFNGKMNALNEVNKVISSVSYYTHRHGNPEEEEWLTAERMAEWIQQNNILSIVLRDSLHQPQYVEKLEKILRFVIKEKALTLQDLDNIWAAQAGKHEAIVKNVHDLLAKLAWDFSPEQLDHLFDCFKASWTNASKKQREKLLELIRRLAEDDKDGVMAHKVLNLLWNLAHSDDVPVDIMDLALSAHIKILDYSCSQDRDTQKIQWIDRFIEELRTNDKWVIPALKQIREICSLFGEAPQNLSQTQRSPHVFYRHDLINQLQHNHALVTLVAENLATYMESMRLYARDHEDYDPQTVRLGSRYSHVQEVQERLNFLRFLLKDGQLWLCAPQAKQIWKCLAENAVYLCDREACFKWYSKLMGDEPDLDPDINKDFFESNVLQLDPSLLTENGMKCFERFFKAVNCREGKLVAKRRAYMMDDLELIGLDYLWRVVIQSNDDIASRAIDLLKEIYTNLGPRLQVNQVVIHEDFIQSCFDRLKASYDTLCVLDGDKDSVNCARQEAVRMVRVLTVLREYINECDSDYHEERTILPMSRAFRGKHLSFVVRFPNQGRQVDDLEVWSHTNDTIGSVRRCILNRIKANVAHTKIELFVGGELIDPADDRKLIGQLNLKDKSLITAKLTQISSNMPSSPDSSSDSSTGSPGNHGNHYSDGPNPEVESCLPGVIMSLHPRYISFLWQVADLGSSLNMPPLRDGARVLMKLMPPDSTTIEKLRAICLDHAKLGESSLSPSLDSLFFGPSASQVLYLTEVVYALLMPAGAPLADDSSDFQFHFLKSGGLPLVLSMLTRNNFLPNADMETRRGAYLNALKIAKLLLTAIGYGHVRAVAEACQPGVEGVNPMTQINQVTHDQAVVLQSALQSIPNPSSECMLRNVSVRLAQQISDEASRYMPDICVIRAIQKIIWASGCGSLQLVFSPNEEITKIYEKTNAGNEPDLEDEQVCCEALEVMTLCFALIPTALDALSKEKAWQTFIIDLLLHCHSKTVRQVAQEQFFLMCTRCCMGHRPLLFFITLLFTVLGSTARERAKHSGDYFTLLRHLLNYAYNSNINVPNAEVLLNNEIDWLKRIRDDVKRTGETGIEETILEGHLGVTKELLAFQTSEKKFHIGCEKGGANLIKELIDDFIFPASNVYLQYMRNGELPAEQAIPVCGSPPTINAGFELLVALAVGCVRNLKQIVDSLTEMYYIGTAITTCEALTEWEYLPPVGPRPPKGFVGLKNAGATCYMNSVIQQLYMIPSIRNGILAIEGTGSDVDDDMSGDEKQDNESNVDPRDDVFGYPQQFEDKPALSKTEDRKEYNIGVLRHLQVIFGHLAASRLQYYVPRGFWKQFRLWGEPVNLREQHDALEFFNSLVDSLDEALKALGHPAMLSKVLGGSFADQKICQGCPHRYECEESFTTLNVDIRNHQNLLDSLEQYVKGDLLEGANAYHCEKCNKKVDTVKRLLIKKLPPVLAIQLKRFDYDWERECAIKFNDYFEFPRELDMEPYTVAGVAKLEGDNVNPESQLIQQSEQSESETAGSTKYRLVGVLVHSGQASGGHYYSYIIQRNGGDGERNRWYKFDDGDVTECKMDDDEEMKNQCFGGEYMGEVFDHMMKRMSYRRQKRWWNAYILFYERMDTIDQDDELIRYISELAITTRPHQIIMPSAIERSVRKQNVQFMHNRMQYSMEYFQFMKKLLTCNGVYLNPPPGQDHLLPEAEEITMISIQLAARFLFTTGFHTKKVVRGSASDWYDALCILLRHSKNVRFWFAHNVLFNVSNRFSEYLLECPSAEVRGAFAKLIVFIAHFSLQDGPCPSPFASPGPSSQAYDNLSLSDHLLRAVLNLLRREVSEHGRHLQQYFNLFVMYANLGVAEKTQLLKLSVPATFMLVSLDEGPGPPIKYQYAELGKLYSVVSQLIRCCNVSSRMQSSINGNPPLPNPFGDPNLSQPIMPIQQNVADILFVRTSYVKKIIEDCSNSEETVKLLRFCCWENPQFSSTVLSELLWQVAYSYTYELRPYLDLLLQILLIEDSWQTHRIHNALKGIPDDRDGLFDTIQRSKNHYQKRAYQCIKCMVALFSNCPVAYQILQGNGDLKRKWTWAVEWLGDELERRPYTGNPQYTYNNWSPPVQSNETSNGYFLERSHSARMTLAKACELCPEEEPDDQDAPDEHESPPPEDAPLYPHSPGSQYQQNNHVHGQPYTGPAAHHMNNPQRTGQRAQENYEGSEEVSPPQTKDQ

In the case of `Cl.NCc1ccc(OC(=O)Oc2ccc(Br)cc2)cc1` [compound 4], the “HA-Ub-VS binding to USP9x and USP7” value [1] is reported as “prevents binding of HA-Ub-VS to USP9x (290 kDa) and USP7 (150 kDa) selectively”, the “inhibition of UCHL1/3” value [2] is reported as “At higher concentrations UCHL1/3 (37 kDa) are inhibited” and the BCR/Abl level ([3]; compound numbered as in FIG. 3) is reported as “decrease in BCR/Abl”. The “K48- and K63-linked ubiquitin” value [4] was “elevated K48- and K63-linked ubiquitin”, the SMAD4 monoubiquitination [5] was “increase in SMAD4 monoubiquitination” and the “inhibition of caspases or the proteasome” value [6] was “does not inhibit caspases or the proteasome”. For the same compound, the “GFP fluorescence of G76V ubiquitin-GFP” value [7] was “increases” and the “MDM2 and P53 levels” value [8] was “degradation of MDM2 and the stabilization of P53”.
`CC(C)(C)OC(=O)NCc1cccc(N=C=S)c1` [TU50] was tested, and the “selectivity of DUB inhibition” value ([9]; HA-Ub-VS labeling) was “selectively inhibits USP9x”, the EC50 ([9]; compound 40 minutes, then HA-Ub-VS (1.5 μM) 20 minutes) was 3 ± 3 µM and the “effect on proteasome activity” value [10] was “no effect on proteasome activity”. The EC50 ([11]; BaF3.p210, single dose, 48 h, Alamar Blue, read-out: EC50, viable cells) was 8 ± 2 µM, the “selectivity of proliferation inhibition over cell panel” value ([11]; panel of 8 cell lines, 48 h and 72 h) was “selectively inhibits proliferation of cells that depend on USP9x” and the “apoptosis of K562 cells” value [12] was “induce apoptosis of K562 cells”. The Bcr-Abl kinase level ([3]; TU50 4 hours) was “cause degradation of Bcr-Abl kinase”.
With `NCc1ccc(OC(=O)Oc2ccc(Cl)cc2)cc1` [compound 3] the “inhibition of cathepsin C” value [13] was “does not”.
